Where “and” joins values, the source holds several entries; their conditions need not be identical. Identical values can stand only once.
System: APP/PS1 mice
Assay: lipid mediator-SPM profile of microglia isolated from treated mice (LC-MS/MS, Supplementary Table 2, Fig 4e-g)
Format: in vivo, mouse
Design: 15R-LXA4 level in microglia (sFig 4g) / RvE1 level in microglia (sFig 4g) / RvD1 level in microglia (sFig 4g): unit not given here
Experimental: Lipid mediators metabololipidomics were performed according to previously described procedures with minor modifications[4],[30]. To confirm the biosynthesis of lipid mediators by recombinant COX2 treated with N-AS or aspirin, 10 U of human recombinant COX2 (Cayman, 60122) was incubated in the presence of 500 μM aspirin (Sigma-Aldrich, A5376) or N-AS (Sigma-Aldrich, 01912) at 37 °C for 30 min. The enzyme was filtered with a Microcon column (Millipore) to remove unreacted aspirin or N-AS and was then resuspended in 0.1 M Tris-HCl (pH 8.0). Next, 500 μM phenol (Sigma-Aldrich) and 1 μM hematin-porcine (Sigma-Aldrich) were added immediately before incubation with 100 μM AA, EPA or DHA (Cayman) at 37 °C for 2 h, respectively. The mixtures were incubated with 30 U of human 5-LOX (Cayman, 60402) containing 2 mM CaCl2 (Sigma-Aldrich), 1 mM ATP (Amresco) and 5 μM 13-HpODE (Cayman) as activators. Also, to validate the importance of residue S565 for N-AS-acetylation of COX2 and production of SPMs, 10 U of the COX2 S565A mutant was used in the above-described method. In addition, to confirm SPM generation in neurons and microglia, these cells were treated with Aβ and sonicated in neuronal and glial culture medium. […] To evaluate the relationship of N-AS and SPM production in microglia, microglia were isolated from WT, APP/PS1, and APP/PS1 treated with N-AS mice at 9 months of age. The microglia were sonicated and resuspended in microglial culture medium. The supernatants were incubated with 100 μM AA, EPA, and DHA (Cayman) at 37 °C for 2 h. A 50 μl aliquot of the mixture from each cell lysate was added to a 250 μl aliquot of 1 ng ml^−1 of 15S-LXA4-d5 (internal standard, Cayman) methanol solution. After vortexing for 10 min and centrifuging at 15,974×g for 5 min, the supernatant was subjected to the analysis of the lipid mediators using an Agilent 6470 Triple Quad LC-MS/MS system (Agilent) coupled to an Agilent 1290 HPLC system. Chromatographic separation was achieved using a Synergi Polar RP (4 μm, 2.0 mm i.d. × 150 mm, Phenomenex). Analytes were eluted with a mobile phase consisting of water: formic acid (100:0.1 v/v) (phase A) and methanol: formic acid (100:0.1 v/v) (phase B) in gradient elution mode for 23 min a flow rate of 0.2 ml min^−1. The elution gradient was as follows: from 0 to 0.1 min the content of phase A was 37% and the content of phase A was decreased to 10% and maintained for 5.5 min. The content of phase A was increased back to 37% at 6.0 min and maintained for 23 min. Quantification was carried out using MRM in negative ionization mode and collision energy of 10–15 eV. The mass transition from Q1 to Q3 is shown in Supplementary Table 2. In this study, the peak areas for all components were automatically integrated using MassHunter B 06.00.
Adult neurons and microglia were isolated from the mice brain as previously described. In brief, the cortex of WT (1, 3, 5, or 9-months-old), APP/PS1 (1, 3, 5, or 9-months-old), APP/PS1 treated with N-AS (9-months-old) or APP/PS1 treated with aspirin (9-months-old) mice were minced in Hibernate A (Gibco)/B27 (Invitrogen) medium and dissociated using papain (Worthington) solution. After tissue trituration, cells were separated by Optiprep (Sigma-Aldrich) density gradient centrifugation. The purity of the fractionated neurons and microglia were acutely confirmed by neuronal (NeuN, mouse, 1:200, Millipore, MAB377) and microglial (Iba1, rabbit, 1:1000, Wako, 019-19941) markers and the isolated neurons and microglia were acutely analyzed for the acetylation assay and lipid mediators metabololipidomics.
Transgenic mouse lines over-expressing the hAPP695swe (APP) and presenilin-1M146V (PS1) mutations were originated from GlaxoSmithKline (Harlow, UK)[32] and maintained as described previously. We purchased 5×FAD mice from Jackson Labs (Stock number. 34840-JAX). Because APP/PS1 and 5xFAD mice show sex differences in disease progression, we used only male mice. […]

[1] = APP/PS1 + N-AS, individual samples

CCCCCCCCCCCCC/C=C/[C@@H](O)[C@H](CO)NC(C)=O [N-AS, N-((2S,3R,E)-1,3-Dihydroxyoctadec-4-en-2-yl)acetamide]
15R-LXA4 level in microglia (sFig 4g) [1]: 4570 and 5879.36 and 4407.58 and 3923.74 and 3772.92 and 3755.88 and 4463.12 and 4253.3 | RvD1 level in microglia (sFig 4g) [1]: 122.239 and 113.373 and 105 and 174.655 and 77.0631 and 102.088 and 125.141 and 80.0045 | RvE1 level in microglia (sFig 4g) [1]: 121.276 and 201.615 and 123.367 and 132.221 and 152.593 and 109.936 and 221.33 | 11-HEPE in mouse microglia (APP/PS1/N-AS, mean±s.e.m., n=6): 8016.0±190.1 pg/1*106cell | 11-HETE in mouse microglia (APP/PS1/N-AS, mean±s.e.m., n=6): 8870.6±557.1 pg/1*106cell | 13-HDHA in mouse microglia (APP/PS1/N-AS, mean±s.e.m., n=6): 6824.5±237.7 pg/1*106cell | 15-HEPE in mouse microglia (APP/PS1/N-AS, mean±s.e.m., n=6): 5286.6±214.8 pg/1*106cell | 15-HETE in mouse microglia (APP/PS1/N-AS, mean±s.e.m., n=6): 33117.1±1929.6 pg/1*106cell | 15R-LXA4 in mouse microglia (APP/PS1/N-AS, mean±s.e.m., n=6): 4378.2±241.8 pg/1*106cell | 17-HDHA in mouse microglia (APP/PS1/N-AS, mean±s.e.m., n=6): 86224.5±10404.3 pg/1*106cell | 18-HEPE in mouse microglia (APP/PS1/N-AS, mean±s.e.m., n=6): 31965.9±2934.1 pg/1*106cell | AA in mouse microglia (APP/PS1/N-AS, mean±s.e.m., n=6): 39563.5±824.8 pg/1*106cell | DHA in mouse microglia (APP/PS1/N-AS, mean±s.e.m., n=6): 37384.7±1351.7 pg/1*106cell | EPA in mouse microglia (APP/PS1/N-AS, mean±s.e.m., n=6): 406.6±21.1 pg/1*106cell | LTB4 in mouse microglia (APP/PS1/N-AS, mean±s.e.m., n=6): 876.5±71.9 pg/1*106cell | PGE3/PGD3 in mouse microglia (APP/PS1/N-AS, mean±s.e.m., n=6): 2590.3±243.8 pg/1*106cell | PGH2/PGE2 in mouse microglia (APP/PS1/N-AS, mean±s.e.m., n=6): 3862.0±266.4 pg/1*106cell | RvD1 in mouse microglia (APP/PS1/N-AS, mean±s.e.m., n=6): 112.4±10.9 pg/1*106cell | RvE1 in mouse microglia (APP/PS1/N-AS, mean±s.e.m., n=6): 151.8±16.3 pg/1*106cell | TxB3 in mouse microglia (APP/PS1/N-AS, mean±s.e.m., n=6): 1209.9±70.0 pg/1*106cell
